We go through 2 compounds from US20070292967A1, “Assay for Ligands of the Ecdysone Receptor” (COMMONWEALTH SCIENTIFIC AND INDUSTRIAL RESEARCH OR, priority 2003, published 2007).

Several values for one entry are separate records, joined by “and”; a condition that tells them apart may be missing. Identical values can stand only once.

For assay [1], the target named is LcLBD, recombinant LBD heterodimer of ecdysone receptor from Lucilia cuprina. Nature of the assay: equilibrium binding of [3H]ponasterone A to LcLBD. Particulars: Langmuir isotherm fit. An excerpt:
(§1) Data fitting using a computer algorithm (KalcidaGraph v3.09, Synergy Software) allowed us to obtain Kd values for each receptor-radioligand complex and to ascertain [LBD]tot. Comparison of the [LBD]tot value with the protein concentration of each purified sample indicated the proportion of the recombinant receptor LBD heterodimer molecules that was functional. Testing Fluorescent and Reference Ecdysteroids As Ligands Using a Radioligand-based Assay

Assay [2] has as its target MpLBD, recombinant LBD heterodimer of ecdysone receptor from Myzus persicae. As to the kind of experiment: equilibrium binding of [3H]ponasterone A to MpLBD. The settings on record: Langmuir isotherm fit.
From the text: as §1

The target of assay [3] is BtLBD, recombinant LBD heterodimer of ecdysone receptor from Bemisia tabaci. As to the kind of experiment: equilibrium binding of [3H]ponasterone A to BtLBD. Particulars: Langmuir isotherm fit.
From the text: as §1

Assay [4] deals with HaLBD, recombinant LBD heterodimer of ecdysone receptor from Helicoverpa armigera. As to the kind of experiment: equilibrium binding of [3H]ponasterone A to HaLBD. The settings on record: Langmuir isotherm fit.
From the text: as §1

A further assay concerns LcLBD. As to the kind of experiment: removal of bound [3H]ponasterone A from LcLBD by dialysis. It is filed as binding, Lucilia cuprina. The settings on record: dialysis at room temperature. An excerpt: The same equilibrium binding experiments indicated the properties of functional receptor LBD heterodimer molecules in each preparation to be as follows: LcLBD, 21%; MpLBD, 16%; BtLBD, 8.4%. The value for HaLBD was not determined directly, but by indirect methods it was assigned a provisional value of 15%. The relatively low activity values agree with published observations for the full-length Drosophila melanogaster receptor, for which Sage et al. (1986) remark that ‘. . . the binding activity of unloaded receptor is inherently labile when subjected to standard protein purification techniques. Therefore, the ecdysteroid receptor needs to remain loaded with hormone during most manipulations’. While we agree that a much higher proportion of functional receptor protein can be obtained by conducting the purification in the presence of an ecdysteroid ligand (data not shown), the resulting receptor-ligand complex is not suitable for use in ligand-binding assays. Moreover, bound ecdysteroid ligands are slow to dissociate from the recombinant receptor LBDs. […] We therefore routinely purified the recombinant receptor LBD heterodimers in the absence of any ligands, and corrected the concentration values of the purified LBD heterodimer preparations to account for the proportion of non-functional heterodimer that was present. […]

Assay [5] concerns Lepidotera versus Diptera. Particulars: selectivity between insect orders; cited from earlier work.

LcLBD, sequence (O18531 442-677 limits assumed): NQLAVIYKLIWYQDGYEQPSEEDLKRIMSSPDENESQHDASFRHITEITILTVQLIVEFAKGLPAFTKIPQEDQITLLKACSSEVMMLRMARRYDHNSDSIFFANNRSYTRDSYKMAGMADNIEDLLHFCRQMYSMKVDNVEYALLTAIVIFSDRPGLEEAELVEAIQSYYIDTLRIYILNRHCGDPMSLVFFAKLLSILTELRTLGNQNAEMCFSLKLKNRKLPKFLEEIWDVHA
LcLBD, recombinant LBD heterodimer of ecdysone receptor from Lucilia cuprina, sequence (O18531 442-677 limits assumed, one chain of several): as the sequence (O18531 442-677 limits assumed) above

For the compound “[24,25,26,27-^3H(N)]ponasterone A [[^3H]ponasterone A]”, the dissociation constant (Kd) in assay [1] is 1 ± 0.1 nM; in assay [2], 0.7 nM and 0.72 nM and ~0.7 nM; in assay [3], 1.21 nM and 1.2 nM; in assay [4], 2.53 ± 0.12 nM. For the same compound, the “half-life of the radioligand-receptor complex” value in the assay on LcLBD is on record as “about 10 h”.
For `CCc1ccc(C(=O)NN(C(=O)c2cc(C)cc(C)c2)C(C)(C)C)cc1` [RH-5992], in assay [5], the “effectiveness against Lepidotera relative to Diptera” value is on record as “two to three orders of magnitude more effective”.

As usually defined, the Kd is the concentration at which binding is half-saturated.
